According to ChEMBL document CHEMBL1201862, “PubChem BioAssay data set” (2004):
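Assay format: 96-well plates, 48-hour exposure. Abbreviation: GI50, concentration required for 50% inhibition of growth.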 The source made the active and inactive calls. Rule as the data show it: active = GI50 up to about 1.1 µM and inactive = higher.

Tests used:
Test in all cases: DTP human tumour cell line panel, 48 h
786-0 = system: 786-0
A549 = system: A549
ACHN = system: ACHN
BT-549 = system: BT-549
CAKI-1 = system: CAKI-1
CCRF-CEM = system: CCRF-CEM
COLO 205 = system: COLO 205
DU-145 = system: DU-145
EKVX = system: EKVX
HCC 2998 = system: HCC 2998
HCT-116 = system: HCT-116
HCT-15 = system: HCT-15
HL-60 = system: HL-60
HOP-62 = system: HOP-62
Hs-578T = system: Hs-578T
IGROV-1 = system: IGROV-1
K562 = system: K562
KM12 = system: KM12
M14 = system: M14
MCF7 = system: MCF7
MDA-MB-231 = system: MDA-MB-231
MDA-MB-435 = system: MDA-MB-435
MOLT-4 = system: MOLT-4
NCI-H226 = system: NCI-H226
NCI-H23 = system: NCI-H23
NCI-H460 = system: NCI-H460
NCI-H522 = system: NCI-H522
NCI/ADR-RES = system: NCI/ADR-RES
OVCAR-3 = system: OVCAR-3
OVCAR-4 = system: OVCAR-4
OVCAR-8 = system: OVCAR-8
PC-3 = system: PC-3
RPMI-8226 = system: RPMI-8226
RXF 393 = system: RXF 393
SF-268 = system: SF-268
SF-295 = system: SF-295
SF-539 = system: SF-539
SK-MEL-28 = system: SK-MEL-28
SK-MEL-5 = system: SK-MEL-5
SK-OV-3 = system: SK-OV-3
SN12C = system: SN12C
SNB-19 = system: SNB-19
SNB-75 = system: SNB-75
SR = system: SR
SW-620 = system: SW-620
T47D = system: T47D
TK-10 = system: TK-10
U-251 = system: U-251
UACC-257 = system: UACC-257
UACC-62 = system: UACC-62
UO-31 = system: UO-31
A498 = system: A498
HOP-92 = system: HOP-92
HT-29 = system: HT-29
LOX IMVI = system: LOX IMVI
OVCAR-5 = system: OVCAR-5
SK-MEL-2 = system: SK-MEL-2
Malme-3M = system: Malme-3M

Measured: GI50

CN(C)c1ccc(/C=C2\Oc3cc(O)ccc3C2=O)cc1
44.9 µM: HCT-15
inactive: 786-0 > 100 µM | A549 88.1 µM | ACHN > 100 µM | BT-549 65.8 µM | CAKI-1 > 100 µM | CCRF-CEM 69.5 µM | COLO 205 > 100 µM | DU-145 > 100 µM | EKVX > 100 µM | HCC 2998 > 100 µM | HCT-116 > 100 µM | HL-60 40.5 µM | HOP-62 > 100 µM | Hs-578T > 100 µM | IGROV-1 > 100 µM | K562 37.8 µM | KM12 61.2 µM | M14 75.7 µM | MCF7 80.9 µM | MDA-MB-231 53.1 µM | MDA-MB-435 36.9 µM | MOLT-4 60.8 µM | NCI-H226 > 100 µM | NCI-H23 > 100 µM | NCI-H460 80.5 µM | NCI-H522 28.1 µM | NCI/ADR-RES 83.4 µM | OVCAR-3 38.7 µM | OVCAR-4 > 100 µM | OVCAR-8 > 100 µM | PC-3 > 100 µM | RPMI-8226 74.1 µM | RXF 393 > 100 µM | SF-268 > 100 µM | SF-295 30.5 µM | SF-539 > 100 µM | SK-MEL-28 > 100 µM | SK-MEL-5 80.7 µM | SK-OV-3 > 100 µM | SN12C 62.4 µM | SNB-19 > 100 µM | SNB-75 79.6 µM | SR 52 µM | SW-620 48.9 µM | T47D > 100 µM | TK-10 > 100 µM | U-251 57 µM | UACC-257 > 100 µM | UACC-62 > 100 µM | UO-31 > 100 µM

CC1=NN(C2=NS(=O)(=O)c3ccccc3N2C)C(=O)C1
> 100 µM: HCT-15
inactive: 786-0 > 100 µM | A498 50.8 µM | A549 > 100 µM | ACHN > 100 µM | BT-549 > 100 µM | CAKI-1 > 100 µM | CCRF-CEM > 100 µM | COLO 205 > 100 µM | DU-145 > 100 µM | EKVX > 100 µM | HCC 2998 > 100 µM | HCT-116 > 100 µM | HL-60 > 100 µM | HOP-62 > 100 µM | HOP-92 > 100 µM | HT-29 > 100 µM | Hs-578T > 100 µM | IGROV-1 > 100 µM | K562 > 100 µM | KM12 > 100 µM | LOX IMVI > 100 µM | M14 > 100 µM | MCF7 > 100 µM | MDA-MB-231 > 100 µM | MDA-MB-435 > 100 µM | MOLT-4 > 100 µM | NCI-H226 > 100 µM | NCI-H23 > 100 µM | NCI-H460 > 100 µM | NCI-H522 > 100 µM | NCI/ADR-RES > 100 µM | OVCAR-3 > 100 µM | OVCAR-4 > 100 µM | OVCAR-5 > 100 µM | OVCAR-8 > 100 µM | PC-3 > 100 µM | RXF 393 > 100 µM | SF-268 > 100 µM | SF-295 > 100 µM | SF-539 > 100 µM | SK-MEL-28 > 100 µM | SK-MEL-2 > 100 µM | SK-MEL-5 > 100 µM | SK-OV-3 > 100 µM | SN12C > 100 µM | SNB-19 > 100 µM | SW-620 > 100 µM | T47D > 100 µM | TK-10 > 100 µM | U-251 > 100 µM | UACC-257 > 100 µM | UACC-62 > 100 µM | UO-31 > 100 µM

COC(=O)n1c(=O)n(-c2ccccc2)c(=O)n1C(=O)Nc1ccccc1
> 100 µM: HCT-15
inactive: 786-0 > 100 µM | A498 > 100 µM | A549 > 100 µM | ACHN > 100 µM | BT-549 > 100 µM | CAKI-1 > 100 µM | CCRF-CEM 96.2 µM | COLO 205 > 100 µM | DU-145 > 100 µM | EKVX > 100 µM | HCC 2998 > 100 µM | HCT-116 > 100 µM | HL-60 > 100 µM | HOP-62 > 100 µM | HOP-92 > 100 µM | HT-29 > 100 µM | Hs-578T > 100 µM | IGROV-1 > 100 µM | K562 51.3 µM | KM12 > 100 µM | LOX IMVI > 100 µM | M14 > 100 µM | MDA-MB-231 > 100 µM | MDA-MB-435 > 100 µM | MOLT-4 > 100 µM | Malme-3M > 100 µM | NCI-H226 > 100 µM | NCI-H23 > 100 µM | NCI-H460 > 100 µM | NCI-H522 > 100 µM | NCI/ADR-RES > 100 µM | OVCAR-3 > 100 µM | OVCAR-4 3.42 µM | OVCAR-5 > 100 µM | OVCAR-8 > 100 µM | PC-3 > 100 µM | RPMI-8226 96.4 µM | RXF 393 > 100 µM | SF-268 > 100 µM | SF-295 > 100 µM | SK-MEL-28 > 100 µM | SK-MEL-2 > 100 µM | SK-MEL-5 > 100 µM | SK-OV-3 > 100 µM | SNB-19 > 100 µM | SNB-75 > 100 µM | SR > 100 µM | SW-620 > 100 µM | T47D > 100 µM | TK-10 > 100 µM | U-251 > 100 µM | UACC-257 > 100 µM | UACC-62 > 100 µM | UO-31 > 100 µM
